Data as given in ChEMBL document CHEMBL3880416, “Inhibitors of AKT Activity” (2011).

What was measured:
[1] = biological target: RAC-alpha serine/threonine-protein kinase (Homo sapiens, UniProt P31749); experiment: Inhibition of full length human AKT1 expressed in Sf9 cells assessed as reduction in substrate phosphorylation using biotin-ahx-ARKRERAYSFGHHA-amide substrate and [gamma-33P]ATP incubated for 40 mins by top count microplate scintillation counting method
[2] = biological target: RAC-gamma serine/threonine-protein kinase (Homo sapiens, UniProt Q9Y243); experiment: Inhibition of full length human AKT3 expressed in Sf9 cells assessed as reduction in substrate phosphorylation using biotin-ahx-ARKRERAYSFGHHA-amide substrate and [gamma-33P]ATP incubated for 40 mins by top count microplate scintillation counting method
Chain of RAC-gamma serine/threonine-protein kinase (Q9Y243 whole entry): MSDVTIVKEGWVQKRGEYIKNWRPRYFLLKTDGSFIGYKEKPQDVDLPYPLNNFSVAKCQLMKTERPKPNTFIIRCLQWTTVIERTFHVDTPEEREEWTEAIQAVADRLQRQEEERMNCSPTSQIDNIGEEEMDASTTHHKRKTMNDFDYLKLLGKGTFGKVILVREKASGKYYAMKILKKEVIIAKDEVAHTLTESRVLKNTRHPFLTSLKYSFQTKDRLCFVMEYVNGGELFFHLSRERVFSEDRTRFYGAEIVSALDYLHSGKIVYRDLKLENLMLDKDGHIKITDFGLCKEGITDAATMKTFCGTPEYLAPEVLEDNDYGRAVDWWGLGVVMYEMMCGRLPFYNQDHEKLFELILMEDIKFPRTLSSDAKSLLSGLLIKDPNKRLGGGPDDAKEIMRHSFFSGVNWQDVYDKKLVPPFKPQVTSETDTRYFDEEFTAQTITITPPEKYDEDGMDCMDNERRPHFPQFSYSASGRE

Chain of RAC-alpha serine/threonine-protein kinase (P31749 whole entry): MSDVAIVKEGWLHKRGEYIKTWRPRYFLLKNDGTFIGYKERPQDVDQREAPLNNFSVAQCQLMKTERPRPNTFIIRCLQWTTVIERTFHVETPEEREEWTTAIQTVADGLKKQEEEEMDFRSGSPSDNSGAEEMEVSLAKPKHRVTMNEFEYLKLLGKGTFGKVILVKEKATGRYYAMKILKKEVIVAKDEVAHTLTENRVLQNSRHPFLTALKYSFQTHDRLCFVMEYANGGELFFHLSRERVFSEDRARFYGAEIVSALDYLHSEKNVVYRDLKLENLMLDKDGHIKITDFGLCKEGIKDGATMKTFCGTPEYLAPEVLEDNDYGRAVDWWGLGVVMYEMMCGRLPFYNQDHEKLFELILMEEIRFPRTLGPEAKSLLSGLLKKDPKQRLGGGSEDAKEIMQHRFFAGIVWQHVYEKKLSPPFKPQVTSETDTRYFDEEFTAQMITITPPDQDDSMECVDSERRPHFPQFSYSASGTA

IC50 [1] | IC50 [2] | SMILES
≤ 2.51 nM | – | Cn1nccc1-c1cc(C(=O)N[C@H](CN)Cc2cccc(F)c2)sc1Cl
≤ 2.51 nM | – | Cn1ncc(Br)c1-c1cc(C(=O)N[C@H](CN)Cc2cccc(C(F)(F)F)c2)sc1Cl
≤ 2.51 nM | – | CCn1ncc(Cl)c1-c1cc(C(=O)N[C@H](CN)Cc2ccc(F)c(F)c2)sc1Cl
1.58 to 2.51 nM | 3.16 to 25.1 nM | Cn1ncc(Cl)c1-c1cc(C(=O)N[C@H](CN)Cc2ccc(F)c(F)c2)sc1Cl
≤ 2.51 nM | – | CCn1ncc(Cl)c1-c1cc(C(=O)N[C@H](CN)Cc2ccc(F)c(F)c2)oc1Cl
≤ 2.51 nM | – | COc1sc(C(=O)N[C@H](CN)Cc2cccc(F)c2)cc1-c1c(Cl)cnn1C
≤ 2.51 nM | – | Cn1ncc(Br)c1-c1cc(C(=O)N[C@H](CN)Cc2cccc(F)c2)sc1Cl
≤ 2.51 nM | – | Cn1ncc(Cl)c1-c1cc(C(=O)N[C@H](CN)Cc2ccccc2C(F)(F)F)oc1Cl
≤ 2.51 nM | – | CCc1sc(C(=O)N[C@H](CN)Cc2cccc(F)c2)cc1-c1c(Cl)cnn1C
≤ 2.51 nM | – | Cc1cnn(C)c1-c1cc(C(=O)N[C@H](CN)Cc2ccccc2C(F)(F)F)sc1Cl
≤ 2.51 nM | – | Cn1ncc(Br)c1-c1cc(C(=O)N[C@H](CN)Cc2ccccc2C(F)(F)F)sc1Cl
≤ 2.51 nM | – | Cn1nccc1-c1cc(C(=O)N[C@H](CN)Cc2ccc(F)c(F)c2)oc1Cl
≤ 2.51 nM | – | Cn1ncc(Br)c1-c1cc(C(=O)N[C@H](CN)Cc2ccc(F)cc2)sc1Cl
≤ 2.51 nM | – | CCn1ncc(Cl)c1-c1cc(C(=O)N[C@H](CN)Cc2ccc(F)cc2)sc1Cl
≤ 2.51 nM | – | Cc1cnn(C)c1-c1cc(C(=O)N[C@H](CN)Cc2cccc(F)c2)oc1Cl
≤ 2.51 nM | – | Cc1cnn(C)c1-c1cc(C(=O)N[C@H](CN)Cc2cccc(F)c2)sc1Cl
≤ 2.51 nM | – | Cn1ncc(Cl)c1-c1cc(C(=O)N[C@H](CN)Cc2ccccc2C(F)(F)F)sc1Cl
